{"source": "patent US5326869A", "about": "(priority 1991, dated 1994)", "molecular_target": "A2 Adenosine receptor (Rattus norvegicus, UniProt P30543)", "sequence (P30543 whole entry)": "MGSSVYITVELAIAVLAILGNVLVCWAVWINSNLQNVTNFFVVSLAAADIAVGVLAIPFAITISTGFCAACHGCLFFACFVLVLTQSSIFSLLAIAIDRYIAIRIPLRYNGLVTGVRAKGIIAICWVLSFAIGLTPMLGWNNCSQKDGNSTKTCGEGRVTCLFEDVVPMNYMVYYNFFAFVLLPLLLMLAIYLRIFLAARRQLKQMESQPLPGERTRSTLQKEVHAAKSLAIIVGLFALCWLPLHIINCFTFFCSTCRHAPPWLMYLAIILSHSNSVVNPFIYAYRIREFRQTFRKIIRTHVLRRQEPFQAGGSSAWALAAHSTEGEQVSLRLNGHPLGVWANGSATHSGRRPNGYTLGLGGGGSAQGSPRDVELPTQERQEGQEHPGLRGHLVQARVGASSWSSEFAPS", "assay": "biochemical", "experimental": "The membrane preparation is obtained as follows: Frozen pellets of PC12 cells are washed twice with ice cold, buffered, physiological saline and the cells recovered by centrifugation (1500 G) at 3° C. The separated cells are then suspended in hypotonic solution (distilled water), allowed to stand on ice for 30 minutes and are then carefully homogenized using a standard high-speed homogeniser with periodic ice-cooling to obtain a fine suspension. […] The mixture is then incubated at 37° C. After 20 minutes, the reaction is terminated by dilution with ice-cold buffer and transfer onto ice. The material obtained containing the cell membranes is recovered by centrifugation and washed by resuspension in buffer and recentrifugation. The pellet produced is then resuspended in ice-cold buffer using a hand-driven homogenizer. The resultant membrane suspension is frozen and stored under liquid nitrogen until required.\nAfter incubation, the samples are rapidly filtered over glass-fibre mats and the filter mats are washed to remove non-receptor-bound radioligand. Receptor-bound radioligand entrapped on the filter mats is then determined by liquid scintillation counting. […] The specific binding (defined as the difference between the total binding and the non-specific binding) in the presence of the particular test compound is determined and compared with the control value.", "data": [{"smiles": "Nc1nc(Oc2ccccc2)nc2nc(-c3ccco3)nn12", "note": "[Example 2, 7-amino-2-(2-furyl)-5-phenoxy[1,2,4]triazolo[1,5-a][1,3,5]triazine]", "values": [{"measurement": "IC50", "result": "~10", "unit": "nM"}]}]}
